Results: patent publication US10870638B2, “Pyridazinone compound or its salt, and herbicide containing it” (ISHIHARA SANGYO KAISHA, LTD., priority 2016, dated 2020)

Experiments:
Assay in all cases: Test Example 1: foliar treatment, growth inhibition rate on 14th day
Assay type in all cases: in vivo
Settings in all cases: active ingredient amount 31 g/ha, 14th day after application
[1] = test system: soybean (Glycine max Merr.)
Text: (§1) Upland field soil was put into a 1/300,000 hectare pot, and seeds of various plants were sown. When the respective plants reached predetermined leaf stage ((1) barnyardgrass (Echinochloa crus-[…].): 0.5 to 2.9 leaf stage, (2) crabgrass (Digitaria sanquinalis L.): 0.5 to 3.0 leaf stage, (3) green foxtail (Setaria viridis L.): 0.5 to 3.2 leaf stage, (4) wild oat (Avena fatua L.): 0.4 to 1.2 leaf stage, (5) italian ryegrass (Lolium multiflorum Lam.): 0.4 to 2.0 leaf stage, (6) redroot pigweed (Amaranthus retroflexus L.): cotyledon stage to 2.2 leaf stage, (7) rice (Oryza sativa L.): 0.2 to 2.7 leaf stage, (8) corn (Zea mays L.): 1.7 to 3.6 leaf stage, (9) wheat (Triticum aestivum L.): 1.3 to 2.3 leaf stage, (10) soybean (Glycine max Merr.); primary leaf stage), wettable powders or emulsifiable concentrates of the compounds of the present invention prepared in accordance with a conventional preparation method, were weighed so as to achieve the prescribed active ingredient amounts, and diluted with water in an amount corresponding to 1,000 liters per 1 hectare (containing 0.1 vol % of an agricultural spreader (surfactant WK manufactured by MARUWA BIOCHEMICAL Co., Ltd.)), and the spray solutions thus prepared were applied for foliar treatment by a small sprayer. On the 14th day after the application, the state of growth of the respective plants was visually observed, and the herbicidal effect was evaluated by a growth inhibition rate (%) of 0 (equivalent to the non-treated area) to 100 (complete kill).

[2] = test system: wild oat (Avena fatua L.)
Text: as §1

corn (Zea mays L.) = test system: corn (Zea mays L.)
Text: as §1

rice (Oryza sativa L.) = test system: rice (Oryza sativa L.)
Text: as §1

[3] = test system: barnyardgrass (Echinochloa crus-qalli L.)
Text: as §1

[4] = test system: italian ryegrass (Lolium multiflorum Lam.)
Text: as §1

[5] = test system: green foxtail (Setaria viridis L.)
Text: as §1

[6] = test system: redroot pigweed (Amaranthus retroflexus L.)
Text: as §1

[7] = test system: crabgrass (Digitaria sanquinalis L.)
Text: as §1

[8] = test system: wheat (Triticum aestivum L.)
Text: as §1

Row | Compound | Growth inhibition rate (%) Soybean [1] [%] | Growth inhibition rate (%) Wild oat [2] [%] | Growth inhibition rate (%) Corn (corn (Zea mays L.)) [%] | Growth inhibition rate (%) Rice (rice (Oryza sativa L.)) [%] | Growth inhibition rate (%) Barnyardgrass [3] [%] | Growth inhibition rate (%) Italian ryegrass [4] [%] | Growth inhibition rate (%) Green foxtail [5] [%] | Growth inhibition rate (%) Redroot pigweed [6] [%] | Growth inhibition rate (%) Crabgrass [7] [%] | Growth inhibition rate (%) Wheat [8] [%]
1 | COc1ccc(Oc2ncc(C(F)(F)F)cc2Cl)cc1-c1c(O)c(C)nn(C)c1=O [1-10] | 20 | 20 | 60 | 0 | 70 | 0 | 90 | 0 | 90 | 0
2 | Cc1ccc(Oc2ncc(C(F)(F)F)cc2Cl)c(C)c1-c1c(O)c(C)nn(C)c1=O [1-13] | 0 | 75 | 88 | 40 | 100 | 70 | 100 | 0 | 95 | 20
3 | COC(=O)OC(C)Oc1c(C)nn(C)c(=O)c1-c1cc(Oc2ncc(C(F)(F)F)cc2Cl)ccc1C (stereo not shown) [1-130] | 0 | 98 | 95 | 30 | 100 | 93 | 99 | 0 | 99 | 80
4 | CCOC(=O)OC(C)Oc1c(C)nn(C)c(=O)c1-c1cc(Oc2ncc(C(F)(F)F)cc2Cl)ccc1C (stereo not shown) [1-131] | 0 | 93 | 80 | 30 | 100 | 83 | 93 | 0 | 100 | 60
5 | Cc1ccc(Oc2ncc(C(F)(F)F)cc2Cl)cc1-c1c(OC(C)OC(=O)OC(C)C)c(C)nn(C)c1=O (stereo not shown) [1-133] | 0 | 40 | 0 | 0 | 88 | 0 | 30 | 0 | 0 | 0
6 | COCCOCOc1c(C)nn(C)c(=O)c1-c1cc(Oc2ncc(C(F)(F)F)cc2Cl)ccc1C [1-134] | 0 | 99 | 93 | 88 | 98 | 98 | 100 | 0 | 99 | 98
7 | CCCCC(=O)Oc1c(C)nn(C)c(=O)c1-c1cc(Oc2ncc(C(F)(F)F)cc2Cl)ccc1C [1-135] | 0 | 100 | 98 | 90 | 100 | 100 | 100 | 0 | 99 | 100
8 | CC(=O)Oc1c(C)nn(C)c(=O)c1-c1cc(Oc2nc3ccc(Cl)cc3s2)ccc1C [Compound 2-132] | 30 | 90 | 0 | 40 | 90 | 78 | 80 | – | 50 | 70
